Measurements published in paper PMC5218480 (PLoS ONE, 2017).

Test system: MV-4-11 cells
Test: Gene expression microarray analysis (Affymetrix PrimeView) and GSEA
Format: cell-based, human
Parameters: RFU PODN (11730768_x_at) / Fold change /veh PODN (11730768_x_at) / RFU LINC00158 (11744669_a_at) / Fold change /veh LINC00158 (11744669_a_at) / RFU DUSP10 (11751237_a_at) / Fold change /veh DUSP10 (11751237_a_at) / RFU ID3 (11757404_x_at) / Fold change /veh ID3 (11757404_x_at) / RFU PLEKHG5 (11737974_s_at) / Fold change /veh PLEKHG5 (11737974_s_at) / RFU LRRC4B (11730491_at) / Fold change /veh LRRC4B (11730491_at) / RFU GIMAP4 (11747438_a_at) / Fold change /veh GIMAP4 (11747438_a_at) / RFU KRT8 (11758183_x_at) / Fold change /veh KRT8 (11758183_x_at) / RFU CNN1 (11734310_a_at) / Fold change /veh CNN1 (11734310_a_at) / RFU VPS37D (11726825_at) / Fold change /veh VPS37D (11726825_at) / RFU C10orf10 (11716522_x_at) / Fold change /veh C10orf10 (11716522_x_at) / RFU KIR2DL2 /// KIR2DL4 /// KIR2DL5A /// KIR2DL5B /// KIR2DS1 /// KIR2DS2 /// KIR2DS3 /// KIR2DS4 /// KIR3DL3 /// KIR3DL3 /// KIR3DS1 (11738374_at) / Fold change /veh KIR2DL2 /// KIR2DL4 /// KIR2DL5A /// KIR2DL5B /// KIR2DS1 /// KIR2DS2 /// KIR2DS3 /// KIR2DS4 /// KIR3DL3 /// KIR3DL3 /// KIR3DS1 (11738374_at) / RFU C1QL1 (11718748_at) / Fold change /veh C1QL1 (11718748_at) / RFU TMPRSS4 (11747572_a_at) / Fold change /veh TMPRSS4 (11747572_a_at) / RFU HAMP (11756126_x_at) / Fold change /veh HAMP (11756126_x_at) / RFU RNFT2 (11725882_a_at) / Fold change /veh RNFT2 (11725882_a_at) / RFU NR4A2 (11747474_a_at) / Fold change /veh NR4A2 (11747474_a_at) / RFU ABCC12 (11746883_a_at) / Fold change /veh ABCC12 (11746883_a_at) / RFU TMEM136 (11760407_x_at) / Fold change /veh TMEM136 (11760407_x_at) / RFU CLDN22 /// WWC2 (11732394_at) / Fold change /veh CLDN22 /// WWC2 (11732394_at) / RFU HLA-DPB1 (11760878_x_at) / Fold change /veh HLA-DPB1 (11760878_x_at) / RFU SPINT1 (11716480_a_at) / Fold change /veh SPINT1 (11716480_a_at) / RFU GAP43 (11754022_s_at) / Fold change /veh GAP43 (11754022_s_at) / RFU A4GNT (11735810_at) / Fold change /veh A4GNT (11735810_at) / RFU PRB3 (11715151_x_at) / Fold change /veh PRB3 (11715151_x_at) / RFU TUBB4B (11761932_at) / Fold change /veh TUBB4B (11761932_at) / RFU CAPN14 (11732068_a_at) / Fold change /veh CAPN14 (11732068_a_at) / RFU TMCC2 (11721928_a_at) / Fold change /veh TMCC2 (11721928_a_at) / RFU IRGQ (11745062_a_at) / Fold change /veh IRGQ (11745062_a_at) / RFU FAM174B (11720279_a_at) / Fold change /veh FAM174B (11720279_a_at) / RFU TMPRSS4 (11748680_a_at) / Fold change /veh TMPRSS4 (11748680_a_at) / RFU FAM212B (11763350_a_at) / Fold change /veh FAM212B (11763350_a_at) / RFU PLEKHG5 (11743358_a_at) / Fold change /veh PLEKHG5 (11743358_a_at) / RFU ZSCAN30 (11745921_a_at) / Fold change /veh ZSCAN30 (11745921_a_at) / RFU CMKLR1 (11741424_a_at) / Fold change /veh CMKLR1 (11741424_a_at) / RFU LOC101060620 /// MAPK8IP1 (11723275_at) / Fold change /veh LOC101060620 /// MAPK8IP1 (11723275_at) / RFU SPTSSB (11747773_x_at) / Fold change /veh SPTSSB (11747773_x_at) / RFU PRSS12 (11739890_at) / Fold change /veh PRSS12 (11739890_at) / RFU BIN1 (11741810_x_at) / Fold change /veh BIN1 (11741810_x_at) / RFU WNT11 (11732464_a_at) / Fold change /veh WNT11 (11732464_a_at) / RFU C10orf10 (11716521_a_at) / Fold change /veh C10orf10 (11716521_a_at) / RFU C5orf56 (11738089_at) / Fold change /veh C5orf56 (11738089_at) / RFU CYB561 (11721691_x_at) / Fold change /veh CYB561 (11721691_x_at) / RFU ANKRD19P (11752326_a_at) / Fold change /veh ANKRD19P (11752326_a_at) / RFU OR2T12 /// OR2T33 /// OR2T8 (11738714_s_at) / Fold change /veh OR2T12 /// OR2T33 /// OR2T8 (11738714_s_at) / RFU VCAN (11748164_a_at) / Fold change /veh VCAN (11748164_a_at) / RFU JSRP1 (11732532_at) / Fold change /veh JSRP1 (11732532_at) / RFU KRTAP10-11 (11738290_x_at) / Fold change /veh KRTAP10-11 (11738290_x_at) / RFU MYO3A (11730013_a_at) / Fold change /veh MYO3A (11730013_a_at) / RFU EBF3 (11725865_a_at) / Fold change /veh EBF3 (11725865_a_at) / RFU CAMK2N1 (11719241_x_at) / Fold change /veh CAMK2N1 (11719241_x_at) / RFU C5orf56 (11738088_a_at) / Fold change /veh C5orf56 (11738088_a_at) / RFU OLFML3 (11715873_a_at) / Fold change /veh OLFML3 (11715873_a_at) / RFU LOC100653217 /// NTM (11731650_a_at) / Fold change /veh LOC100653217 /// NTM (11731650_a_at) / RFU MAPK11 (11762145_a_at) / Fold change /veh MAPK11 (11762145_a_at) / RFU FIZ1 (11724087_x_at) / Fold change /veh FIZ1 (11724087_x_at) / RFU OASL (11726364_x_at) / Fold change /veh OASL (11726364_x_at) / RFU SOX15 (11748057_x_at) / Fold change /veh SOX15 (11748057_x_at) / RFU CD79A (11719716_a_at) / Fold change /veh CD79A (11719716_a_at) / RFU HIST1H1D (11736915_at) / Fold change /veh HIST1H1D (11736915_at) / RFU CASKIN2 (11723855_a_at) / Fold change /veh CASKIN2 (11723855_a_at) / RFU LOC730098 (11760151_x_at) / Fold change /veh LOC730098 (11760151_x_at) / RFU OR4N2 (11742367_at) / Fold change /veh OR4N2 (11742367_at) / RFU PRRT2 (11749266_a_at) / Fold change /veh PRRT2 (11749266_a_at) / RFU SNX32 (11753110_a_at) / Fold change /veh SNX32 (11753110_a_at) / RFU CDHR5 (11726645_a_at) / Fold change /veh CDHR5 (11726645_a_at) / RFU RCAN1 (11760418_a_at) / Fold change /veh RCAN1 (11760418_a_at) / RFU FAM167A (11723789_a_at) / Fold change /veh FAM167A (11723789_a_at) / RFU FAM26E (11764081_at) / Fold change /veh FAM26E (11764081_at) / RFU ISYNA1 (11749810_s_at) / Fold change /veh ISYNA1 (11749810_s_at) / RFU ACY1 (11761880_at) / Fold change /veh ACY1 (11761880_at) / RFU 11764098_at / Fold change /veh 11764098_at / RFU SAMD14 (11745864_x_at) / Fold change /veh SAMD14 (11745864_x_at) / RFU NPB (11741838_a_at) / Fold change /veh NPB (11741838_a_at) / RFU TMPRSS6 (11731388_a_at) / Fold change /veh TMPRSS6 (11731388_a_at) / RFU KRTAP10-2 (11738614_at) / Fold change /veh KRTAP10-2 (11738614_at) / RFU ARHGAP8 /// PRR5-ARHGAP8 (11727945_x_at) / Fold change /veh ARHGAP8 /// PRR5-ARHGAP8 (11727945_x_at) / RFU KRTAP5-7 /// NADSYN1 (11734609_at) / Fold change /veh KRTAP5-7 /// NADSYN1 (11734609_at) / RFU RASL12 (11751679_a_at) / Fold change /veh RASL12 (11751679_a_at) / RFU CDKN2B (11736163_a_at) / Fold change /veh CDKN2B (11736163_a_at) / RFU PRF1 (11729649_at) / Fold change /veh PRF1 (11729649_at) / RFU, ZNF638 /// ZNF638-IT1 / Fold change vs veh, ZNF638 /// ZNF638-IT1 / RFU, PANK3 / Fold change vs veh, PANK3 / RFU, SH3YL1 / Fold change vs veh, SH3YL1 / RFU, ZEB2 / Fold change vs veh, ZEB2 / RFU, NRIP1 / Fold change vs veh, NRIP1 / RFU, PTTG1IP / Fold change vs veh, PTTG1IP / RFU, CAPN2 / Fold change vs veh, CAPN2 / RFU, MED14 / Fold change vs veh, MED14 / RFU, SNORA58 / Fold change vs veh, SNORA58 / RFU, C1orf63 / Fold change vs veh, C1orf63 / RFU, LRRFIP1 / Fold change vs veh, LRRFIP1 / RFU, NDUFAF7 / Fold change vs veh, NDUFAF7 / RFU, SLC12A2 / Fold change vs veh, SLC12A2 / RFU, IBTK / Fold change vs veh, IBTK / RFU, ESF1 / Fold change vs veh, ESF1 / Fold change vs veh, TMEM50B / RFU, TAOK1 / Fold change vs veh, TAOK1 / RFU, ACBD3 / Fold change vs veh, ACBD3 / RFU, TMA16 / Fold change vs veh, TMA16 / RFU, RWDD3 / Fold change vs veh, RWDD3 / RFU, BCAT1 / Fold change vs veh, BCAT1 / RFU, EDEM3 / Fold change vs veh, EDEM3 / RFU, TMEM33 / Fold change vs veh, TMEM33 / RFU, WDR75 / Fold change vs veh, WDR75 / RFU, AHCTF1 / Fold change vs veh, AHCTF1 / RFU, TFRC / Fold change vs veh, TFRC / RFU, ZDHHC17 / Fold change vs veh, ZDHHC17 / RFU, NOM1 / Fold change vs veh, NOM1 / RFU, ARL8B / Fold change vs veh, ARL8B / RFU, ZBTB11 / Fold change vs veh, ZBTB11 / RFU, TAMM41 / Fold change vs veh, TAMM41 / RFU, KIAA1704 /// LOC100996395 / Fold change vs veh, KIAA1704 /// LOC100996395 / RFU, ING1 / Fold change vs veh, ING1 / RFU, TRMT61B / Fold change vs veh, TRMT61B / RFU, FUBP3 / Fold change vs veh, FUBP3 / RFU, TP53 / Fold change vs veh, TP53 / RFU, TNKS2 / Fold change vs veh, TNKS2 / RFU, ZFP14 / Fold change vs veh, ZFP14 / RFU, ACTR2 / Fold change vs veh, ACTR2 / RFU, PPP3R1 / Fold change vs veh, PPP3R1 / RFU, PIK3R1 / Fold change vs veh, PIK3R1 / RFU, HNRNPA1 / Fold change vs veh, HNRNPA1 / RFU, RNF170 / Fold change vs veh, RNF170 / RFU, ZNF28 / Fold change vs veh, ZNF28 / RFU, RNGTT / Fold change vs veh, RNGTT / RFU, OGT / Fold change vs veh, OGT / RFU, BRD1 / Fold change vs veh, BRD1 / RFU, MARS / Fold change vs veh, MARS / RFU, ZNF655 / Fold change vs veh, ZNF655 / RFU, FAHD1 / Fold change vs veh, FAHD1 / RFU, BDP1 / Fold change vs veh, BDP1 / RFU, LRRCC1 / Fold change vs veh, LRRCC1 / RFU, ARID1A / Fold change vs veh, ARID1A / RFU, ZNF146 / Fold change vs veh, ZNF146 / RFU, ZNF330 / Fold change vs veh, ZNF330 / RFU, GPN3 / Fold change vs veh, GPN3 / RFU, C9orf123 / Fold change vs veh, C9orf123 / RFU, N4BP2L2 / Fold change vs veh, N4BP2L2 / RFU, ARFIP1 / Fold change vs veh, ARFIP1 / RFU, FAM179B / Fold change vs veh, FAM179B / RFU, BCL10 / Fold change vs veh, BCL10 / RFU, UHRF1BP1L / Fold change vs veh, UHRF1BP1L / RFU, BET1 / Fold change vs veh, BET1 / RFU, CNOT2 / Fold change vs veh, CNOT2 / RFU, ZNF268 / Fold change vs veh, ZNF268 / Fold change vs veh, ZNF507 / RFU, DGCR2 / Fold change vs veh, DGCR2 / RFU, WDSUB1 / Fold change vs veh, WDSUB1 / Fold change vs veh, HSP90B1 /// MIR3652 / RFU, ADSS / Fold change vs veh, ADSS / RFU, GK / Fold change vs veh, GK / RFU, ZNF148 / Fold change vs veh, ZNF148 / RFU, TAF9 / Fold change vs veh, TAF9 / RFU, SLC1A5 / Fold change vs veh, SLC1A5 / RFU, SLMO2 / Fold change vs veh, SLMO2 / RFU, ABCC4 / Fold change vs veh, ABCC4 / RFU, LOC101060439 /// RAP1B / Fold change vs veh, LOC101060439 /// RAP1B / RFU, RFX7 / Fold change vs veh, RFX7 / RFU, GTPBP10 / Fold change vs veh, GTPBP10 / RFU, CNEP1R1 / Fold change vs veh, CNEP1R1 / RFU, BIVM-ERCC5 /// ERCC5 / Fold change vs veh, BIVM-ERCC5 /// ERCC5 / RFU, ILF3 / Fold change vs veh, ILF3 / RFU 11762660_at / Fold change /veh 11762660_at / RFU VCAN (11757783_s_at) / Fold change /veh VCAN (11757783_s_at) / RFU DDX43 (11728927_at) / Fold change /veh DDX43 (11728927_at) / RFU KRT8 (11758188_x_at) / Fold change /veh KRT8 (11758188_x_at) / RFU NKD1 (11759106_at) / Fold change /veh NKD1 (11759106_at) / RFU SRD5A1 (11742802_a_at) / Fold change /veh SRD5A1 (11742802_a_at) / RFU TPSAB1 /// TPSB2 (11721975_s_at) / Fold change /veh TPSAB1 /// TPSB2 (11721975_s_at) / RFU GSTM3 (11746129_a_at) / Fold change /veh GSTM3 (11746129_a_at) / RFU IL23R (11737362_x_at) / Fold change /veh IL23R (11737362_x_at) / RFU TMEM51 (11727254_a_at) / Fold change /veh TMEM51 (11727254_a_at) / RFU PIWIL2 (11732686_x_at) / Fold change /veh PIWIL2 (11732686_x_at) / RFU ORM1 (11744905_x_at) / Fold change /veh ORM1 (11744905_x_at) / RFU CCDC152 (11743942_at) / Fold change /veh CCDC152 (11743942_at) / RFU ECM1 (11717891_a_at) / Fold change /veh ECM1 (11717891_a_at) / RFU IL23R (11748794_a_at) / Fold change /veh IL23R (11748794_a_at) / RFU TNFAIP8L3 (11732012_x_at) / Fold change /veh TNFAIP8L3 (11732012_x_at) / RFU MBOAT4 (11741988_at) / Fold change /veh MBOAT4 (11741988_at) / RFU 11764193_at / Fold change /veh 11764193_at / RFU TMEM53 (11763286_at) / Fold change /veh TMEM53 (11763286_at) / RFU MAGEB2 (11727129_at) / Fold change /veh MAGEB2 (11727129_at) / RFU TMEM200A (11744735_a_at) / Fold change /veh TMEM200A (11744735_a_at) / RFU CCDC152 (11751479_a_at) / Fold change /veh CCDC152 (11751479_a_at) / RFU FAM211A (11726209_a_at) / Fold change /veh FAM211A (11726209_a_at) / RFU RGS16 (11746705_a_at) / Fold change /veh RGS16 (11746705_a_at) / RFU VCAN (11755009_s_at) / Fold change /veh VCAN (11755009_s_at) / RFU RHOB (11743442_s_at) / Fold change /veh RHOB (11743442_s_at) / RFU RGS16 (11720943_a_at) / Fold change /veh RGS16 (11720943_a_at) / RFU RGS16 (11720944_at) / Fold change /veh RGS16 (11720944_at) / RFU, VPS4B / Fold change vs veh, VPS4B / RFU, CREB1 / Fold change vs veh, CREB1 / RFU, DNAJC13 / Fold change vs veh, DNAJC13 / RFU, GNAQ / Fold change vs veh, GNAQ / RFU, CDK5R1 / Fold change vs veh, CDK5R1 / RFU, ZRANB3 / Fold change vs veh, ZRANB3 / RFU, CUL4A / Fold change vs veh, CUL4A / RFU, CCNY / Fold change vs veh, CCNY / RFU, UFL1 / Fold change vs veh, UFL1 / RFU, COG3 / Fold change vs veh, COG3 / RFU, DIAPH2 / Fold change vs veh, DIAPH2 / RFU, SKA2 / Fold change vs veh, SKA2 / RFU, AFF3 / Fold change vs veh, AFF3 / RFU, LMF1 / Fold change vs veh, LMF1 / RFU, IPO11 / Fold change vs veh, IPO11 / RFU, DFFB / Fold change vs veh, DFFB / RFU, FOXP1 / Fold change vs veh, FOXP1 / RFU, CARD8 / Fold change vs veh, CARD8 / RFU, STRN3 / Fold change vs veh, STRN3 / RFU, ADK / Fold change vs veh, ADK / RFU, RASSF2 / Fold change vs veh, RASSF2 / RFU, WIPF1 / Fold change vs veh, WIPF1 / RFU, LARP1B / Fold change vs veh, LARP1B / RFU, RASA1 / Fold change vs veh, RASA1 / RFU, RB1 / Fold change vs veh, RB1 / RFU, PPFIA1 / Fold change vs veh, PPFIA1 / RFU, MAT2A / Fold change vs veh, MAT2A / RFU, CCT5 / Fold change vs veh, CCT5 / RFU, WDR92 / Fold change vs veh, WDR92 / RFU, CUX1 / Fold change vs veh, CUX1 / RFU, TTC7A / Fold change vs veh, TTC7A / RFU, TMEM135 / Fold change vs veh, TMEM135 / RFU, DEPTOR / Fold change vs veh, DEPTOR / RFU, CPM / Fold change vs veh, CPM / RFU, DNAJB6 / Fold change vs veh, DNAJB6 / RFU, CACNA2D3 / Fold change vs veh, CACNA2D3 / RFU, DTX4 / Fold change vs veh, DTX4 / RFU, TFCP2 / Fold change vs veh, TFCP2 / RFU, GMCL1 /// GMCL1P1 / Fold change vs veh, GMCL1 /// GMCL1P1 / RFU, AEBP2 / Fold change vs veh, AEBP2 / RFU, SNHG1 /// SNORD22 /// SNORD25 /// SNORD26 /// SNORD27 /// SNORD28 /// SNORD29 /// SNORD31 / Fold change vs veh, SNHG1 /// SNORD22 /// SNORD25 /// SNORD26 /// SNORD27 /// SNORD28 /// SNORD29 /// SNORD31 / Fold change (Aza/veh), C12orf56 (ProbeSet 11735607_a_at) / Fold change (ACY-1035/veh), C12orf56 (ProbeSet 11735607_a_at) / Fold change (Aza/veh), FGFR1OP (ProbeSet 11751329_s_at) / Fold change (ACY-1035/veh), FGFR1OP (ProbeSet 11751329_s_at) / Fold change (Aza/veh), VPS36 (ProbeSet 11739960_a_at) / Fold change (ACY-1035/veh), VPS36 (ProbeSet 11739960_a_at) / RFU SYPL1 (11715823_x_at) / Fold change /veh SYPL1 (11715823_x_at) / RFU IGFBP7 (11715501_s_at) / Fold change /veh IGFBP7 (11715501_s_at) / RFU REEP3 (11722064_at) / Fold change /veh REEP3 (11722064_at) / RFU IGLL1 (11728026_x_at) / Fold change /veh IGLL1 (11728026_x_at): dose or concentration left out as unconfirmed
Conditions: ProbeSet 11731610_x_at; LIST B

**Q.** Nc1ccc(-c2cccs2)cc1NC(=O)c1ccc2c(c1)cc(C1CC1)n2CCN1CCOCC1 [ACY-1035] was tested. Which “Fold change vs veh, KIAA1704 /// LOC100996395” value did it give?
**A.** 0.91
